Results as given in PMC7459591 (Marine Drugs, 2020).

What was measured:
human Kv1.5 channel = assay type: cell-based
human Kv1.4 channel = assay type: cell-based

Which results are given for `CSCC[C@H](NC(=O)[C@@H]1CCCN1C(=O)CNC(=O)[C@H](CO)NC(=O)[C@@H](NC(=O)[C@H](C)N)[C@@H](C)O)C(=O)NCC(=O)N[C@@H](Cc1c[nH]c2ccccc12)C(=O)N[C@@H](CC(C)C)C(=O)N1CCC[C@H]1C(=O)N[C@H](C(=O)N[C@@H](Cc1ccccc1)C(=O)N[C@@H](Cc1ccc(O)cc1)C(=O)N[C@@H](CCCNC(=N)N)C(=O)N[C@@H](Cc1ccccc1)C(N)=O)C(C)C` [CNF-Sr3, Conorfamide-Sr3]?
Decrease of current, Kv1.5 (human Kv1.5 channel): less than 5%; Decrease of current, Kv1.4 (human Kv1.4 channel): less than 5%
